# Patent US20260102377A1, “COMPOSITIONS AND METHODS FOR TREATING MYASTHENIA GRAVIS” (priority 2022, published 2026)
# Read-outs that look alike come from different tables or passages of the source.
# How the values were obtained:
# [1] = Phase IIA clinical trial (Part C): pharmacokinetics in patients; assay type: in vivo; conditions: both sexes, human, plasma; for AUC(0-inf): read-out: AUC0-infinity (Mean ± SD, h · ng/mL); for Cmax: read-out: Cmax (Mean ± SD, ng/mL); for half-life: read-out: T1/2 (median, hr) (converted); for Tmax: read-out: Tmax (median, hr)
# Procedure: (§1) • Collect blood (3 mL recommended) onto wet ice (K2EDTA tubes) • Immediately cool blood on crushed wet ice for maximum of 30 minutes • Harvest plasma as quickly as possible using refrigerated centrifuge by centrifuging at 2000 g for 10 minutes at 4° C. • Keep plasma on wet ice and immediately stabilise with 1:1 (v/v) addition of Water: Orthophosphoric Acid (100:2 v/v) prepared using ≥85% orthophosphoric acid and deionised water (e.g. 750 μL plasma+750 μL stabiliser). • Mix sample thoroughly. • Keep the stabilised plasma on wet ice during subsequent steps. • Divide the stabilised plasma into 5×250 μL aliquots in plastic cryotubes. • Store aliquots at nominal −70° C./−80° C. promptly.
# (§2) • 1. Thaw frozen calibration standards, QC samples, blank matrix and study samples on wet ice. • 2. Vortex-mix all samples thoroughly. • 3. On wet ice aliquot 150 μL of calibration standards, QC samples, study samples, and blanks into a 2 mL 96-well plate. For the reagent blank add the same volume of Water. • 4. On wet ice add 25 μL of Methanol:Water (50:50) to wells containing blanks and the same volume of ISTD intermediate solution to all other wells. • 5. On wet ice add 125 μL of Water to each well. Cap plate and vortex-mix (˜5 minutes, 1000 rpm). • 6. Centrifuge plate (˜3000 g, 3 minutes, room temperature). • 7. Condition SPE plate (Waters Oasis HLB pElution) with 250 μL Methanol. • 8. Condition SPE plate with 250 μL of Water. • 9. Load 250 μL of the sample onto the SPE plate (aspirate from the rim of the cone to avoid any debris collected at the bottom of the well). Pass through using minimum pressure. • 10. Wash SPE plate with 250 μL of Water. • 11. Wash SPE plate with 250 μL of Methanol:Water (5:95). Briefly increase pressure for one minute to ensure sorbent is partially dried. • 12. Elute from SPE plate into a 1.2 mL 96-well plate using 30 μL of Methanol. Stand for one minute then pass through using absolute minimum pressure. • 13. Elute again with another 30 μL of Methanol, collecting into the same plate. Briefly increase pressure for one minute to complete the elution. • 14. Add 125 μL of Ammonium Formate 10 mM (aq):Formic Acid (100:0.3) to each well. Cap plate and vortex mix (˜1 minute, ≥1200 rpm). • 15. Store plate refrigerated prior to analysis.
# For each subject, the study consisted of three study periods during which subjects received either a single dose of NMD670 400 mg, NMD670 1200 mg, or placebo with a 7-day washout period between visits. On these study visits, subjects were asked to refrain from their regular dose of pyridostigmine (if applicable) from 14 h before dosing until after the last pharmacodynamic measurement on Day 1 (see Table 13: Visit and Assessment Schedule). The cross-over design allowed intra-individual comparison of drug effects versus placebo (see FIG. 16). A balanced design was applied to control for first-order carry-over effects.
# Part C was a double-blinded, placebo-controlled, three-way cross-over comparison of two single oral doses of NMD670 in men and women with stable symptomatic myasthenia gravis. 12 patients were enrolled. For each subject, the study consisted of three study periods during which subjects received either a single dose of NMD670 or placebo. On these study visits, subjects were asked to refrain from their regular dose of pyridostigmine (if applicable) for 14 hours before dosing. Single doses were administered in randomized order (400 mg free acid, 1200 mg free acid, or placebo p.o.), with a 7-day washout period between visits (FIG. 16). NMD670/placebo was administered with 240 ml of still water.
# EAMG rats = assay: 14-day dosing in EAMG animals: bodyweight and study completion; assay type: in vivo, rat
# Procedure: To induce EAMG, 250 μL of emulsion of Complete Freund's Adjuvant, consisting of heat-inactivated Mycobacterium tuberculosis H37Ra in non-metabolizable oils, together with Phosphate-Buffered Saline (PBS) and 80 μg of the extracellular α-domain peptide fragment of the human nicotinic acetylcholine receptor (antigen) was injected subcutaneously in seven-week-old, anaesthetized Lewis rats. The disease-inducing antigen was supplied by the Hellenic Pasteur institute3. The emulsion was deposited at the tail base, left hindleg, and right foreleg. After injection, animals were allowed to recover and returned to their home cage maintained in ventilated racks under controlled temperature (20 to 22° C.) and humidity (˜55%) control, under a 12-h light/12-h dark cycle with food and water provided ad libitum. The animals had pathogen free status and the housing and changing system was designed to assure that the pathogen free status was preserved during the study. The EAMG rats were observed, weighed, and scored for MG symptoms weekly until symptoms of MG developed, whereafter animals were observed daily.
# Sixteen (16) rats with an EAMG clinical score of 2 were allocated to the study and stratified to one of the two treatment groups (vehicle vs NMD670, 8 rats per group). […] Grip strength and Rotarod performance were measured prior to treatment (day 0) and on days 1, 4, 7, 9, 11 and 14 during treatment. […]
# [2] = Phase I clinical trial Part A: pharmacokinetics; assay type: in vivo; conditions: human; for half-life: read-out: T1/2 (mean ± SD, hr) (converted)
# Procedure: as §1, §2
# Subjects received 800 mg NMD670.
smiles,measurement,setting,value
"C[C@H](Oc1ccc(Br)cc1-c1ccon1)C(=O)O [NMD670, (2S)-2-[4-bromo-2-(1,2-oxazol-3-yl)phenoxy]propanoic acid]",AUC(0-inf),[1]; 400 mg single oral dose,93.7 µg·h/mL
same,Cmax,[1]; 400 mg single oral dose,21700 ng/mL
same,half-life,[1]; 400 mg single oral dose,5.43 h
same,Tmax,[1]; 400 mg single oral dose,2 h
same,AUC(0-inf),[1]; 1200 mg single oral dose,378 µg·h/mL
same,Cmax,[1]; 1200 mg single oral dose,76700 ng/mL
same,half-life,[1]; 1200 mg single oral dose,5.06 h
same,Tmax,[1]; 1200 mg single oral dose,2 h
same,Loss of body weight versus vehicle,"EAMG rats; 14-day chronic dosing, EAMG animals, 20 mg/kg twice daily (b36 prints 40 mg/kg BID)",attenuation in loss of body weight
same,Treated rats that completed the study,"EAMG rats; 14-day study, early termination when body weight below 80% of maximum, vehicle 3 out of 8",6 of the 8
same,AUC(0-inf),"[2]; female, plasma, po, 800 mg, 800 mg (female), single oral dose, read-out: AUC0-infinity (Mean ± SD, h · ng/mL)",256 ± 56.2 µg·h/mL
same,half-life,"[2]; female, plasma, po, 800 mg, 800 mg (female), single oral dose",5.55 ± 0.55 h
same,Linearity of PK parameters,[2]; phase 1 FIH study,approximately linear and predictable
same,half-life,"[2]; male, plasma, po, 800 mg, 800 mg fasted (male), single oral dose",5.39 ± 0.82 h
same,half-life,"[2]; male, plasma, po, 800 mg, 800 mg fed (male), single oral dose",5.02 ± 1.04 h
